Article PMC5589637, “New perspectives of cobalt tris(bipyridine) system: anti-cancer effect and its collateral sensitivity towards multidrug-resistant (MDR) cancers” (Oncotarget, 2017)
pIC50: −log10 of the molar value.

Legend:
[1] = tested on: A2780 cisplatin-sensitive cancer cells; experiment: MTT cytotoxicity, cisplatin-sensitive A2780; type: cell-based; conditions: 72 h
Source text: (§1) All cells were obtained from the American Type Culture Collection (Rockville, MD, USA) unless otherwise specified. Immortalized wild-type and Atg7-deficient mouse embryonic fibroblasts (MEFs) were kindly provided by Professor Masaaki Komatsu (Juntendo University, School of Medicine, Japan). Taxol-resistant types of MCF-7, HCT-8, A549 cancers cells and cisplatin-resistant SGC7901 cancer cells were purchased from KeyGEN BioTECH, China. Cisplatin-sensitive or –resistant A2780, OV2008 and C13 cancer cells were kindly provided by Prof. Benjamin Tsang (Department of Obstetrics and Gynecology and Department of Cellular and Molecular Medicine, University of Ottawa, Canada). HCT116 p53^+/+ and p53^−/− isogenic human colon cancer cells were kindly provided by Professor Bert Vogelstein (Ludwig Center at Johns Hopkins, Howard Hughes Medical Institute, USA). All media were supplemented with 10% fetal bovine serum and antibiotics penicillin (50 U/ml) and streptomycin (50 μg/ml; Invitrogen, Paisley, Scotland, UK). All cell cultures were incubated at 37°C in a 5% humidified CO2 incubator.
(§2) All tested compounds were dissolved in DMSO at a final concentration of 50 mmol/L and stored at −20°C before use. Cytotoxicity was assessed by using the 3-(4,5-dimethylthiazol-2-yl)-2, 5-diphenyltetrazolium bromide (MTT) (5.0 mg/ml) assay as previously described. Briefly, 4×10^3 cells per well were seeded in 96-well plates before drug treatments. After overnight culture, the cells were then exposed to different concentrations of selected compounds ([…]) for 72 hours. Cells without drug treatment were used as control. Subsequently, MTT (10 μL) solution was added to each well and incubated at 37°C for 4 hours followed by the addition of 100 μL solubilization buffer (10%SDS in 0.01 mol/L HCl) and overnight incubation. A570 nm was then determined in each well on the next day. The percentage of cell viability was calculated using the following formula: Cell viability (%) = Atreated/Acontrol × 100. Data were obtained from three independent experiments.

[2] = tested on: A2780 cisplatin-resistant cancer cells; experiment: MTT cytotoxicity, cisplatin-resistant A2780; type: cell-based; conditions: for pIC50: A2780 cisplatin-resistant, MTT, 72 h; for Resistant Factor, A2780: cisplatin-resistant over cisplatin-sensitive IC50, A2780
Source text: as §1, §2

[3] = tested on: SGC-7901 cisplatin-sensitive cancer cells; experiment: MTT cytotoxicity, cisplatin-sensitive SGC-7901; type: cell-based; conditions: 72 h
Source text: as §1, §2

[4] = tested on: SGC-7901 cisplatin-resistant cancer cells; experiment: MTT cytotoxicity, cisplatin-resistant SGC-7901; type: cell-based; conditions: for pIC50: SGC-7901 cisplatin-resistant, MTT, 72 h; for Resistant Factor, SGC-7901: cisplatin-resistant over cisplatin-sensitive IC50, SGC-7901
Source text: as §1, §2

[5] = tested on: OV2008 (cisplatin-sensitive) cells; experiment: MTT cytotoxicity, OV2008 (cisplatin-sensitive); type: cell-based; conditions: 72 h, read-out: IC50 value, cisplatin-sensitive cancer, OV2008
Source text: as §1, §2

[6] = tested on: C13 (cisplatin-resistant) cells; experiment: MTT cytotoxicity, C13 (cisplatin-resistant); type: cell-based; conditions: for pIC50: C13 (cisplatin-resistant), MTT, 72 h, read-out: IC50 value, cisplatin-resistant cancer, C13; for Resistant Factor, OV2008/C13 pair: C13 (resistant) IC50 over OV2008 (sensitive) IC50
Source text: as §1, §2

[7] = tested on: cisplatin-resistant cancer cells (A2780, SGC-7901, OV2008 and C13); experiment: MTT cytotoxicity, summary over cisplatin-sensitive/resistant pairs; type: cell-based; conditions: over A2780, SGC-7901, OV2008/C13 pairs
Experimental: as §2

[8] = tested on: MCF-7 taxol-sensitive cancer cells; experiment: MTT cytotoxicity, taxol-sensitive MCF-7; type: cell-based
Source text: as §1, §2

[9] = tested on: MCF-7 taxol-resistant cancer cells; experiment: MTT cytotoxicity, taxol-resistant MCF-7; type: cell-based; conditions: for pIC50: MCF-7 taxol-resistant, MTT, 72 h; for Resistant Factor, MCF-7: IC50 of taxol-resistant cells over IC50 of taxol-sensitive cells
Source text: as §1, §2

[10] = tested on: HCT-8 taxol-sensitive cancer cells; experiment: MTT cytotoxicity, taxol-sensitive HCT-8; type: cell-based; conditions: 72 h
Source text: as §1, §2

[11] = tested on: HCT-8 taxol-resistant cancer cells; experiment: MTT cytotoxicity, taxol-resistant HCT-8; type: cell-based; conditions: for pIC50: HCT-8 taxol-resistant, MTT, 72 h; for Resistant Factor, HCT-8: IC50 of taxol-resistant cells over IC50 of taxol-sensitive cells
Source text: as §1, §2

[12] = tested on: A549 taxol-sensitive cancer cells; experiment: MTT cytotoxicity, taxol-sensitive A549; type: cell-based; conditions: 72 h
Source text: as §1, §2

[13] = tested on: A549 taxol-resistant cancer cells; experiment: MTT cytotoxicity, taxol-resistant A549; type: cell-based; conditions: for pIC50: A549 taxol-resistant, MTT, 72 h; for Resistant Factor, A549: IC50 of taxol-resistant cells over IC50 of taxol-sensitive cells
Source text: as §1, §2

[14] = tested on: taxol-resistant MCF-7, HCT-8, and A549 cancer cells; experiment: MTT cytotoxicity, summary over taxol-sensitive/resistant MCF-7, HCT-8 and A549 pairs; type: cell-based; conditions: IC50 of taxol-resistant over taxol-sensitive cells; over MCF-7, HCT-8 and A549
Experimental: as §2

[15] = tested on: HeLa (cervical cancer) cells; experiment: MTT cytotoxicity assay, HeLa; type: cell-based; conditions: 72 h
Experimental: as §2

[16] = tested on: MCF-7 (breast cancer) cells; experiment: MTT cytotoxicity assay, MCF-7; type: cell-based; conditions: MCF-7, MTT, 72 h
Experimental: as §2

[17] = tested on: H1299 (lung cancer) cells; experiment: MTT cytotoxicity assay, H1299; type: cell-based, human; conditions: 72 h
Experimental: as §2

[18] = tested on: H1975 (EGFR mutant lung cancer) cells; experiment: MTT cytotoxicity assay, H1975; type: cell-based; conditions: 72 h
Experimental: as §2

[19] = tested on: A549 (EGFR wild-type lung cancer) cells; experiment: MTT cytotoxicity assay, A549; type: cell-based; conditions: 72 h
Experimental: as §2

[20] = tested on: LLC-1 (mouse lung cancer) cells; experiment: MTT cytotoxicity assay, LLC-1; type: cell-based; conditions: LLC-1, MTT, 72 h
Experimental: as §2

[21] = tested on: HepG2 (liver cancer) cells; experiment: MTT cytotoxicity assay, HepG2; type: cell-based; conditions: 72 h
Experimental: as §2

[22] = tested on: Hep3B (liver cancer) cells; experiment: MTT cytotoxicity assay, Hep 3B; type: cell-based; conditions: 72 h
Experimental: as §2

[23] = tested on: normal human LO2 hepatocytes; experiment: MTT cytotoxicity assay, LO2; type: cell-based; conditions: 72 h
Experimental: as §2

[24] = tested on: HCT116 p53^+/+ colon cancer cells; experiment: MTT cytotoxicity, HCT116 p53+/+; type: cell-based, human; conditions: 72 h
Source text: as §1, §2

[25] = tested on: HCT116 p53^-/- colon cancer cells; experiment: MTT cytotoxicity, HCT116 p53-/-; type: cell-based, human; conditions: for pIC50: HCT116 p53-/-, MTT, 72 h; for Resistant Factor, HCT116 p53-/- vs p53+/+: IC50 p53-/- over IC50 p53+/+
Source text: as §1, §2

[26] = tested on: panel of cancer cells; experiment: MTT cytotoxicity assay, summary over the panel of cancer cells; type: cell-based; conditions: range over the cancer cell lines of Table 1, MTT, 72 h; read-out: mean IC50 values ranged (over the cancer cell lines)
Experimental: as §2

| SMILES | pIC50 [1] | pIC50 [2] | Resistant Factor, A2780 [2] | pIC50 [3] | pIC50 [4] | Resistant Factor, SGC-7901 [4] | pIC50 [5] | pIC50 [6] | Resistant Factor, OV2008/C13 pair [6] | Resistant Factor, MCF-7 [9] | Resistant Factor, HCT-8 [11] | Resistant Factor, A549 [13] | pIC50 [15] | pIC50 [16] | pIC50 [17] | pIC50 [18] | pIC50 [19] | pIC50 [20] | pIC50 [21] | pIC50 [22] | other results |
| --- | --- | --- | --- | --- | --- | --- | --- | --- | --- | --- | --- | --- | --- | --- | --- | --- | --- | --- | --- | --- | --- |
| N.N.[Cl][Pt][Cl] [Cisplatin, cis-[Pt^II(NH3)2Cl2], reference compound] | 4.82 | < 3.70 | > 13.25 | 5.41 | 4.37 | 10.97 | 4.74 | < 3.70 | > 11.0 | – | – | – | – | – | – | – | – | – | – | – | resistant factor in cisplatin-resistant cancers (summary) [7]: up to 13.25 |
| CC(=O)O[C@H]1C(=O)[C@@]2(C)[C@H]([C@H](OC(=O)c3ccccc3)[C@]3(O)C[C@H](OC(=O)[C@H](O)[C@@H](NC(=O)c4ccccc4)c4ccccc4)C(C)=C1C3(C)C)[C@]1(OC(C)=O)CO[C@@H]1C[C@@H]2O [Taxol, reference compound] | – | – | – | – | – | – | – | – | – | 4.51 | >15.9 | 42.4 | – | – | – | – | – | – | – | – | pIC50 ([8]; Homo sapiens, MCF7, 72 h): 4.91; pIC50 ([9]; Homo sapiens, MCF7): 4.26; pIC50 ([10]; Homo sapiens): 4.90; pIC50 ([11]; Homo sapiens): < 3.70; pIC50 ([12]; Homo sapiens): 5.81; pIC50 ([13]; Homo sapiens): 4.18; resistant factor in taxol-resistant cancers (summary) [14]: up to 42.4 |
| Cc1ccnc(-c2cc(C)ccn2)c1.Cc1ccnc(-c2cc(C)ccn2)c1.Cc1ccnc(-c2cc(C)ccn2)c1.F[P-](F)(F)(F)(F)F.F[P-](F)(F)(F)(F)F.[Co+2] [complex 1, [Co^II(4,4’-Me2-bpy)3](PF6)2] | 4.92 | 4.95 | 0.94 | 4.93 | 4.75 | 1.50 | 5.15 | 4.81 | 2.21 | 0.54 | 0.37 | 0.25 | 5.00 | 4.81 | 5.46 | 4.81 | 5.02 | 5.55 | 5.13 | 5.39 | pIC50 [23]: 4.87; pIC50 ([8]; 72 h): 5.34; pIC50 [9]: 5.60; pIC50 [10]: 5.50; pIC50 [11]: 5.94; pIC50 [12]: 5.02; pIC50 [13]: 5.63; pIC50 [24]: 4.77; pIC50 [25]: 5.05; Resistant Factor, HCT116 p53-/- vs p53+/+ [25]: 0.52 |
| COc1ccnc(-c2cc(OC)ccn2)c1.COc1ccnc(-c2cc(OC)ccn2)c1.COc1ccnc(-c2cc(OC)ccn2)c1.F[P-](F)(F)(F)(F)F.F[P-](F)(F)(F)(F)F.F[P-](F)(F)(F)(F)F.[Co+3] [complex 5, [Co^III(4,4’-(OMe)2-bpy)3](PF6)3] | 4.62 | 4.57 | 1.13 | 4.67 | 4.68 | 0.96 | 4.85 | 4.69 | 1.45 | 0.66 | 0.24 | 0.19 | 4.89 | 4.97 | 5.06 | 5.03 | 4.73 | 5.06 | 4.81 | 5.27 | pIC50 [23]: 4.69; pIC50 ([8]; 72 h): 5.02; pIC50 [9]: 5.20; pIC50 [10]: 5.37; pIC50 [11]: 5.98; pIC50 [12]: 4.82; pIC50 [13]: 5.55; pIC50 [24]: 4.11; pIC50 [25]: 4.38; Resistant Factor, HCT116 p53-/- vs p53+/+ [25]: 0.53 |
| CCCCCCCCCc1ccnc(-c2cc(CCCCCCCCC)ccn2)c1.CCCCCCCCCc1ccnc(-c2cc(CCCCCCCCC)ccn2)c1.CCCCCCCCCc1ccnc(-c2cc(CCCCCCCCC)ccn2)c1.F[P-](F)(F)(F)(F)F.F[P-](F)(F)(F)(F)F.F[P-](F)(F)(F)(F)F.[Co+3] [complex 6, [Co^III(4,4’-(C9H19)2-bpy)3](PF6)3] | 4.52 | 4.54 | 0.96 | 4.44 | 4.44 | 0.99 | 4.31 | 4.03 | 1.87 | 0.39 | 0.73 | 0.05 | 4.67 | 4.43 | 4.57 | 4.62 | 4.08 | 4.98 | 4.59 | 4.27 | pIC50 [23]: 4.40; pIC50 [26]: 4.08 to 4.98; pIC50 ([8]; 72 h): 4.55; pIC50 [9]: 4.95; pIC50 [10]: 4.25; pIC50 [11]: 4.39; pIC50 [12]: 4.27; pIC50 [13]: 5.59; pIC50 [24]: 4.44; pIC50 [25]: 4.47; Resistant Factor, HCT116 p53-/- vs p53+/+ [25]: 0.93 |
